Test results as given in paper PMC6949113, “Preclinical evaluation of AT-527, a novel guanosine nucleotide prodrug with potent, pan-genotypic activity against hepatitis C virus” (PLoS ONE, 2020).
Structures can show the parent of a compound that is named as a salt. Where two headings read alike, the source gives them in different places.

Legend:
RSV = test: Anti-RSV assay (XTT); conditions: RSV in HEp2 cells
HIV-1 = test: Anti-HIV-1 assay (XTT); type: cell-based, human immunodeficiency virus type 1; conditions: Human immunodeficiency virus 1; HIV-1 in CEM-SS cells
Experimental: Anti-Human Immunodeficiency Virus (HIV-1). CEM-SS cells were obtained from the NIH AIDS Research and Reference Reagent Program (Manassas, VA), resuspended at 5x10^4 cells per mL and 50 µL added to the microtiter plate wells. The lymphocyte-tropic virus strain HIV-1RF (obtained from the NIH AIDS Research and Reference Reagent Program and grown in CEM-SS cells for stock virus pools) was used for the assay.
(§1) Determination of antiviral activity and cytotoxicity.

CEM-SS cells = test: XTT cytotoxicity, CEM-SS cells; type: cell-based; conditions: HIV-1 assay
[1] = system: granulocyte macrophage (GM) human bone marrow progenitor cells; test: Bone marrow progenitor cell inhibition assay, GM; type: cell-based; conditions: 14 days
[2] = system: erythroid (E) human bone marrow progenitor cells; test: Bone marrow progenitor cell inhibition assay, E; type: cell-based; conditions: 14 days
Source text: Bone marrow progenitor cell inhibition assays. […] The resulting number of colonies (greater than 30 cells) were compared to control wells to determine the extent of cytotoxicity.

[3] = molecular target: human mitochondrial RNA polymerase (POLRMT) (Homo sapiens, UniProt O00411); conditions: nucleotide controls; cited from earlier work
HBV = test: Anti-HBV evaluation (qPCR of HBV DNA); type: cell-based; conditions: Hepatitis B virus; HBV in AD38 cells
Experimental: (§2) Anti-HBV evaluation. […] The test compound was serially diluted in the RPMI/FBS medium and added to the wells in triplicate (with six wells receiving medium alone as a virus only control). The plate was incubated for 6 days, with a change in medium (+/- compound) on Day 3. Supernatant (100 µL) was collected from each well for analysis of viral DNA by qPCR as described below and cytotoxicity was evaluated by XTT staining of the cell culture monolayer on the sixth day as described above.
Quantitative PCR detection of HBV DNA. Cell culture supernatant (10 µL) was diluted in qPCR dilution buffer (40 µg/mL sheared salmon sperm DNA) and boiled for 15 min. Quantitative real time PCR was performed in […] using an Applied Biosystems 7900HT Sequence Detection System and the supporting SDS 2.4 software. Samples (5 µL boiled DNA) and DNA standards were subjected to real time qPCR using Platinum Quantitative PCR SuperMix-UDG (Invitrogen) and specific DNA oligonucleotide primers (IDT, Coralville, […]) HBV-AD38-qF1 (5’-[…] -3’), HBV-AD38-qR1 (5’-AGT CCA AGA GTY CTC TTA TRY AAG ACC TT-3’), and HBV-AD38-qP1 (5’-FAM-CCG TGT GCA/ZEN/[…] -3’BHQ1) at a final concentration of 0.2 µM for each primer in a total reaction volume of 15 µL. […]

AD38 cells = test: XTT cytotoxicity, AD38 cells; type: cell-based; conditions: AD38, HBV assay
Experimental: as §1, §2

human DNA polymerase γ = molecular target: T1, human DNA polymerase γ (Homo sapiens, UniProt P54098); test: Human DNA polymerase inhibition assay, γ; type: biochemical
T1 construct: purchased CHIMERx (Madison, WI)
Experimental: The polymerases were purchased from CHIMERx (Madison, WI). Inhibition of DNA polymerase α activity was assayed in microtiter plates in 20 mM Tris-HCl, pH 8, 5 mM Mg acetate, 0.3 mg/mL BSA, 1mM DTT, 0.1 mM spermine, 0.05 mM dCTP, dTTP and dATP, 10 μCi ^32P-α-dGTP (800 Ci/mmol), 20 μg activated calf thymus DNA and the test compound at indicated concentrations. The DNA polymerase β and γ reaction mixture contained 50 mM Tris-HCl, pH 8.7, KCl (10 mM for β and 100 mM for γ), 10 mM MgCl2, 0.4 mg/mL BSA, 1mM DTT, 15% glycerol, 0.05 mM dCTP, dTTP and dATP, 10 μCi ^32P-α-dGTP (800 Ci/mmol), 20 μg activated calf thymus DNA and test compound at the indicated concentrations. For each assay, samples were run in triplicate, and positive controls were included. The enzyme reactions were allowed to proceed for 30 min at 37 °C followed by transfer onto glass-fiber filter plates and subsequent precipitation with 10% trichloroacetic acid (TCA). Plates were washed five times with 5% TCA, once with 95% ethanol and dried. The radioactive content of each filter was measured and used to determine the extent of inhibition of each polymerase.

Flu A = test: Anti-influenza A assay (XTT); type: cell-based, influenza virus type A; conditions: Influenza A virus; Flu A in MDCK cells
Flu B = test: Anti-influenza B assay (XTT); type: cell-based, influenza virus type B; conditions: Influenza B virus; Flu B in MDCK cells
Source text: Anti-Influenza Type A and B Virus (Flu A & B). […] The influenza A/PR/8/34 (VR-95) and influenza B/Allen/45 (VR-102) was obtained from ATCC and a stock virus pool was produced in MDCK cells.
as §1

Chain of human mitochondrial RNA polymerase (POLRMT) (O00411 42-1230): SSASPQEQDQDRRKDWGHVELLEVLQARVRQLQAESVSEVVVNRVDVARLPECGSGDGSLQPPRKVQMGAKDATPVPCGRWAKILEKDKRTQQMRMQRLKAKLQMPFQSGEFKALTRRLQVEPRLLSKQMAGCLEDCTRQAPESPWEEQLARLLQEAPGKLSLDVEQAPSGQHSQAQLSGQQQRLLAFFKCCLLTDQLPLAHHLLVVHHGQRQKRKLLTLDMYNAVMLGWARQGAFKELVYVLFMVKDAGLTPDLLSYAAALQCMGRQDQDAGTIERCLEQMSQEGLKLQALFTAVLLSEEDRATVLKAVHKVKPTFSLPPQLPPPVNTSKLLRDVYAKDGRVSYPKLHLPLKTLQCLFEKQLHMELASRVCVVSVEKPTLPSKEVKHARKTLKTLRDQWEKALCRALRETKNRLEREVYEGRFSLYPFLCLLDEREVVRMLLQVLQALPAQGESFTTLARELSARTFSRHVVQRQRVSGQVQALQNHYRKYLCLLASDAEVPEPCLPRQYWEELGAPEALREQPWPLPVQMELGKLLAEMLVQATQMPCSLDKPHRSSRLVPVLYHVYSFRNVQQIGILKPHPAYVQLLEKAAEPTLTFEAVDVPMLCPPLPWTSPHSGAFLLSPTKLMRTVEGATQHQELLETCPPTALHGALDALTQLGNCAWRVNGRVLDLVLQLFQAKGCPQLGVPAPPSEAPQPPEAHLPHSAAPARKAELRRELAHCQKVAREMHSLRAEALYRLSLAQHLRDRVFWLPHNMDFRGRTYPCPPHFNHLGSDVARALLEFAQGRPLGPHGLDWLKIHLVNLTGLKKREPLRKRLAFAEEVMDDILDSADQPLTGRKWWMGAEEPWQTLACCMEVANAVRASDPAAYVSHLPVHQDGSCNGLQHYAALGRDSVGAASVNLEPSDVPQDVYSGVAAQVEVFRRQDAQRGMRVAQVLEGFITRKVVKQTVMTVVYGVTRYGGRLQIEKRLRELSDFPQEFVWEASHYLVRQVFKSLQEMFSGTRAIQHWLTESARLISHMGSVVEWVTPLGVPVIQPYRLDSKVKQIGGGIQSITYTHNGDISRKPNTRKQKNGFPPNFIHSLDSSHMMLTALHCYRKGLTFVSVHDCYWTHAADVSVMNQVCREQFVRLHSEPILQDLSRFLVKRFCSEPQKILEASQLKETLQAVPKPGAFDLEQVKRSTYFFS
T1 sequence (P54098 whole entry): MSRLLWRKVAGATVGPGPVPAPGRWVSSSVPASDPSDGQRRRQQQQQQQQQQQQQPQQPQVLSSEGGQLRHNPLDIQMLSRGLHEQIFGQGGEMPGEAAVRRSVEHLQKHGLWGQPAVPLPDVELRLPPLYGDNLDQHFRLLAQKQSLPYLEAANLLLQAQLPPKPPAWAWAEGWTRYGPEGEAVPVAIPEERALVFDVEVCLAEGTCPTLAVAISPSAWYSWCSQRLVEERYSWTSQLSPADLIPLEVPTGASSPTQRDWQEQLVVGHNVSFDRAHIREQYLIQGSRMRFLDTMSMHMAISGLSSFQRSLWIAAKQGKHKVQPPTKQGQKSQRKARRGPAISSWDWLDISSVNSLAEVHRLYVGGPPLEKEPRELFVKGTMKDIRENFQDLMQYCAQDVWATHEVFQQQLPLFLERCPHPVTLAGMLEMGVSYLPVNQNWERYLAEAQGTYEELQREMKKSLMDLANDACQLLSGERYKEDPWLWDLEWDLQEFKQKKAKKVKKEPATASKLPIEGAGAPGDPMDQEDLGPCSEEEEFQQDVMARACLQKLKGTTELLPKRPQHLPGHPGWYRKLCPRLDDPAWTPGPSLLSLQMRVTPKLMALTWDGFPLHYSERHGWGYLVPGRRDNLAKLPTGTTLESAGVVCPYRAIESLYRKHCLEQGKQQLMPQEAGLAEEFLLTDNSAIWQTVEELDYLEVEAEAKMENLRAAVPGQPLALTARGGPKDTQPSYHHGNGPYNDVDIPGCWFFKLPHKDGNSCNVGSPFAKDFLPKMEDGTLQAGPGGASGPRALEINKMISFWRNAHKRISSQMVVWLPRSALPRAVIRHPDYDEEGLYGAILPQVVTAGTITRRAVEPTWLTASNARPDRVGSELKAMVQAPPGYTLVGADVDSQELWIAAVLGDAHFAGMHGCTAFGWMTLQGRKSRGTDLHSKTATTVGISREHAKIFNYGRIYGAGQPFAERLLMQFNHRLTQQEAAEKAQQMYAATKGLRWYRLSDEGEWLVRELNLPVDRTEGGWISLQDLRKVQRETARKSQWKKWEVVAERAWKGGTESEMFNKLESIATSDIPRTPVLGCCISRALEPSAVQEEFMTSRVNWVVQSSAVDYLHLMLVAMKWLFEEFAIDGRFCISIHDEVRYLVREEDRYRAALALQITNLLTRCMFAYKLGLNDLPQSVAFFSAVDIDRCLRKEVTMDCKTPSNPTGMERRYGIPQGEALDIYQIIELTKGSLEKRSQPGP

Cc1ccc(CCCO)c(NCc2ccc3nc(NCCCN4CCOCC4)n(Cc4nc(C)ccc4O)c3c2)c1 [TMC-353121]
TC50 (HEp2 cells): >0.10 µM
EC50 (RSV): 0.003 µM

Cc1cn([C@H]2C[C@H](N=[N+]=[N-])[C@@H](CO)O2)c(=O)[nH]c1=O [Zidovudine]
EC50 (HIV-1): 0.004 µM
TC50 (CEM-SS cells): >0.50 µM
TC50 [1]: 1 µM
TC50 [2]: 2 µM

O=c1ccn([C@@H]2O[C@H](COP(=O)(O)OP(=O)(O)OP(=O)(O)O)[C@@H](O)[C@H]2O)c(=O)[nH]1 [UTP]
kpol [3]: 17 ± 1 s⁻¹

CC(C)OC(=O)OCOP(=O)(CO[C@H](C)Cn1cnc2c(N)ncnc21)OCOC(=O)OC(C)C [TDF, tenofovir disoproxil fumarate]
EC50 (HBV): 0.23 µM
TC50 (AD38 cells): >1.0 µM

Nc1nc2c(ncn2[C@@H]2O[C@H](COP(=O)(O)OP(=O)(O)OP(=O)(O)O)[C@@H](O)[C@H]2F)c(=O)[nH]1 [2’-fluoro-2’-dGTP, reference compound]
IC50 (human DNA polymerase γ): 10.4 µM

CCOC(=O)C1=C[C@@H](OC(CC)CC)[C@H](NC(C)=O)[C@@H](N)C1 [Oseltamivir]
EC50 (Flu A): 0.16 µM
EC50 (Flu B): 0.42 µM
TC50 (MDCK cells; Flu A assay): >10.0 µM
TC50 (MDCK cells; Flu B assay): >10.0 µM
